Measurements as given in patent publication US3951955A, “Penicillins substituted with heterocyclic groups” (Sumitomo Chemical Company, Limited, priority 1970, dated 1976).
≈ marks a conversion by molar mass, not a printed value.

Key:
Escherichia coli NIHJ = assay: minimal inhibitory concentration, agar dilution method (in vitro); format: cell-based
Description: (§1) When determined according to the agar dilution method, the penicillins [I] afford the minimal inhibitory concentrations as shown in the following Table 1: […]

[1] = tested on: Staphylococcus aureus 209P; assay: as above; format: cell-based
Description: as §1

[2] = tested on: Pseudomonas aeruginosa 104; assay: as above; format: cell-based
Description: as §1

[3] = tested on: Klebsiella pneumoniae 602; assay: as above; format: cell-based
Description: as §1

Proteus miravilis 2425 = assay: as above; format: cell-based
Description: as §1

Pseudomonas = settings: background statement on prior art; cited from earlier work
[4] = tested on: various gram-positive and gram-negative bacteria; settings: background statement on prior art; cited from earlier work

| Compound | MIC (Escherichia coli NIHJ) | MIC [1] | MIC [2] | MIC [3] | MIC (Proteus miravilis 2425) | antimicrobial activity against Pseudomonas (Pseudomonas) | growth inhibition / antimicrobial activity against gram-positive and gram-negative bacteria [4] |
| --- | --- | --- | --- | --- | --- | --- | --- |
| CC1(C)SC2C(NC(=O)C(NC(=O)c3cnc4cnc(O)nc4c3O)c3ccccc3)C(=O)N2C1C(=O)O (centres unmarked) [Example 53] | 3.13 µg/mL (≈ 5.81 µM) | 1.56 µg/mL (≈ 2.9 µM) | 6.25 µg/mL (≈ 11.6 µM) | 6.25 µg/mL (≈ 11.6 µM) | 6.25 µg/mL (≈ 11.6 µM) | – | – |
| Cc1ccnc2c(O)c(C(=O)NC(C(=O)NC3C(=O)N4C3SC(C)(C)C4C(=O)O)c3ccccc3)cnc12 (centres unmarked) [Example 34] | 3.13 µg/mL (≈ 5.84 µM) | 1.56 µg/mL (≈ 2.91 µM) | 3.13 µg/mL (≈ 5.84 µM) | 6.25 µg/mL (≈ 11.7 µM) | 3.13 µg/mL (≈ 5.84 µM) | – | – |
| CNc1ccc2ncc(C(=O)NC(C(=O)NC3C(=O)N4C3SC(C)(C)C4C(=O)O)c3ccccc3)c(O)c2n1 (centres unmarked) [Example 35] | 1.56 µg/mL (≈ 2.83 µM) | 0.78 µg/mL (≈ 1.42 µM) | 3.13 µg/mL (≈ 5.68 µM) | 3.13 µg/mL (≈ 5.68 µM) | 6.25 µg/mL (≈ 11.4 µM) | – | – |
| COc1ccc2c(O)c(C(=O)NC(C(=O)N[C@@H]3C(=O)N4[C@@H]3SC(C)(C)[C@@H]4C(=O)O)c3ccccc3)cnc2c1 (some centres unmarked) [Example 18] | 6.25 µg/mL (≈ 11.4 µM) | 0.39 µg/mL (≈ 0.708 µM) | 6.25 µg/mL (≈ 11.4 µM) | 0.78 µg/mL (≈ 1.42 µM) | 1.56 µg/mL (≈ 2.83 µM) | – | – |
| CC1(C)S[C@@H]2[C@H](NC(=O)C(NC(=O)c3cnc4cc(C(F)(F)F)ccc4c3O)c3ccccc3)C(=O)N2[C@H]1C(=O)O (some centres unmarked) [Example 20] | 12.5 µg/mL (≈ 21.2 µM) | 0.39 µg/mL (≈ 0.663 µM) | 6.25 µg/mL (≈ 10.6 µM) | 0.39 µg/mL (≈ 0.663 µM) | 3.13 µg/mL (≈ 5.32 µM) | – | – |
| CC1(C)SC2C(NC(=O)C(NC(=O)c3cnc4ccc(N)nc4c3O)c3ccccc3)C(=O)N2C1C(=O)O (centres unmarked) [Example 40] | 1.56 µg/mL (≈ 2.91 µM) | 0.78 µg/mL (≈ 1.45 µM) | 3.13 µg/mL (≈ 5.83 µM) | 1.56 µg/mL (≈ 2.91 µM) | 1.56 µg/mL (≈ 2.91 µM) | – | – |
| CC1(C)S[C@@H]2[C@H](NC(=O)C(NC(=O)c3cnc4ccc(O)nc4c3O)c3ccccc3)C(=O)N2[C@H]1C(=O)O (some centres unmarked) [Example 29] | 1.56 µg/mL (≈ 2.9 µM) | 1.56 µg/mL (≈ 2.9 µM) | 3.13 µg/mL (≈ 5.82 µM) | 3.13 µg/mL (≈ 5.82 µM) | 3.13 µg/mL (≈ 5.82 µM) | – | – |
| Cc1cnc2c(O)c(C(=O)NC(C(=O)NC3C(=O)N4C3SC(C)(C)C4C(=O)O)c3ccccc3)cnc2c1 (centres unmarked) [Example 33] | 3.13 µg/mL (≈ 5.84 µM) | 1.56 µg/mL (≈ 2.91 µM) | 6.25 µg/mL (≈ 11.7 µM) | 3.13 µg/mL (≈ 5.84 µM) | 3.13 µg/mL (≈ 5.84 µM) | – | – |
| CC1(C)SC2C(NC(=O)C(NC(=O)c3cnc4ccncc4c3O)c3ccccc3)C(=O)N2C1C(=O)O (centres unmarked) [Example 43] | 12.5 µg/mL (≈ 24 µM) | 0.78 µg/mL (≈ 1.5 µM) | 6.25 µg/mL (≈ 12 µM) | 6.25 µg/mL (≈ 12 µM) | 12.5 µg/mL (≈ 24 µM) | – | – |
| CC1(C)SC2C(NC(=O)C(NC(=O)c3cnc4cccnc4c3O)c3cccs3)C(=O)N2C1C(=O)O (centres unmarked) [Example 39] | 1.56 µg/mL (≈ 2.96 µM) | 0.78 µg/mL (≈ 1.48 µM) | 6.25 µg/mL (≈ 11.8 µM) | 3.13 µg/mL (≈ 5.93 µM) | 3.13 µg/mL (≈ 5.93 µM) | – | – |
| COc1ccc2ncc(C(=O)NC(C(=O)N[C@@H]3C(=O)N4[C@@H]3SC(C)(C)[C@@H]4C(=O)O)c3ccccc3)c(O)c2c1 (some centres unmarked) [Example 19] | 6.25 µg/mL (≈ 11.4 µM) | 0.39 µg/mL (≈ 0.708 µM) | 6.25 µg/mL (≈ 11.4 µM) | 0.78 µg/mL (≈ 1.42 µM) | 1.56 µg/mL (≈ 2.83 µM) | – | – |
| CCNc1ccc2ncc(C(=O)NC(C(=O)NC3C(=O)N4C3SC(C)(C)C4C(=O)O)c3ccccc3)c(O)c2n1 (centres unmarked) [Example 41] | 3.13 µg/mL (≈ 5.54 µM) | 0.78 µg/mL (≈ 1.38 µM) | 6.25 µg/mL (≈ 11.1 µM) | 6.25 µg/mL (≈ 11.1 µM) | 6.25 µg/mL (≈ 11.1 µM) | – | – |
| CC1(C)SC2C(NC(=O)C(NC(=O)c3cnc4cncnc4c3O)c3cccs3)C(=O)N2C1C(=O)O (centres unmarked) [Example 58] | 1.56 µg/mL (≈ 2.95 µM) | 0.78 µg/mL (≈ 1.48 µM) | 3.13 µg/mL (≈ 5.92 µM) | 1.56 µg/mL (≈ 2.95 µM) | 3.13 µg/mL (≈ 5.92 µM) | – | – |
| CCOC(=O)Oc1c(C(=O)NC(C(=O)N[C@@H]2C(=O)N3[C@@H]2SC(C)(C)[C@@H]3C(=O)O)c2ccccc2)cnc2cc(Cl)ccc12 (some centres unmarked) [Example 16] | 6.25 µg/mL (≈ 9.97 µM) | 0.2 µg/mL (≈ 0.319 µM) | 3.13 µg/mL (≈ 4.99 µM) | 0.39 µg/mL (≈ 0.622 µM) | 3.13 µg/mL (≈ 4.99 µM) | – | – |
| COc1nc(OC)c2c(O)c(C(=O)NC(C(=O)N[C@@H]3C(=O)N4[C@@H]3SC(C)(C)[C@@H]4C(=O)O)c3ccccc3)cnc2n1 (some centres unmarked) [Example 26] | 3.13 µg/mL (≈ 5.37 µM) | 0.78 µg/mL (≈ 1.34 µM) | 3.13 µg/mL (≈ 5.37 µM) | 3.13 µg/mL (≈ 5.37 µM) | 3.13 µg/mL (≈ 5.37 µM) | – | – |
| CC(=O)Nc1ccc2ncc(C(=O)NC(C(=O)N[C@@H]3C(=O)N4[C@@H]3SC(C)(C)[C@@H]4C(=O)O)c3ccccc3)c(O)c2c1 (some centres unmarked) [Example 23] | 12.5 µg/mL (≈ 21.6 µM) | 0.78 µg/mL (≈ 1.35 µM) | 12.5 µg/mL (≈ 21.6 µM) | 3.13 µg/mL (≈ 5.42 µM) | 3.13 µg/mL (≈ 5.42 µM) | – | – |
| CC1(C)SC2C(NC(=O)C(NC(=O)c3cnc4ncncc4c3O)c3ccccc3)C(=O)N2C1C(=O)O (centres unmarked) [Example 47] | 3.13 µg/mL (≈ 5.99 µM) | 0.78 µg/mL (≈ 1.49 µM) | 3.13 µg/mL (≈ 5.99 µM) | 3.13 µg/mL (≈ 5.99 µM) | 6.25 µg/mL (≈ 12 µM) | – | – |
| CC1(C)S[C@@H]2C(NC(=O)C(N)c3ccccc3)C(=O)N2[C@H]1C(=O)O (stereo partly drawn) [Ampicillin, 6-(α-aminophenylacetamido)-penicillanic acid, reference compound] | 6.25 µg/mL (≈ 17.9 µM) | 0.2 µg/mL (≈ 0.572 µM) | > 200 µg/mL | 50 µg/mL (≈ 143 µM) | 3.13 µg/mL (≈ 8.96 µM) | does not exert any appreciable antimicrobial activity against Pseudomonas | inhibits the growth of various gram-positive and gram-negativebacteria |
| CCCCNc1ccc2ncc(C(=O)NC(C(=O)NC3C(=O)N4C3SC(C)(C)C4C(=O)O)c3ccccc3)c(O)c2n1 (centres unmarked) [Example 36] | 1.56 µg/mL (≈ 2.63 µM) | 1.56 µg/mL (≈ 2.63 µM) | 3.13 µg/mL (≈ 5.28 µM) | 3.13 µg/mL (≈ 5.28 µM) | 3.13 µg/mL (≈ 5.28 µM) | – | – |
| CC1(C)SC2C(NC(=O)C(NC(=O)c3cnc4cncnc4c3O)c3ccccc3)C(=O)N2C1C(=O)O (centres unmarked) [Example 50] | 1.56 µg/mL (≈ 2.99 µM) | 0.78 µg/mL (≈ 1.49 µM) | 3.13 µg/mL (≈ 5.99 µM) | 0.78 µg/mL (≈ 1.49 µM) | 1.56 µg/mL (≈ 2.99 µM) | – | – |
| CC1(C)S[C@@H]2[C@H](NC(=O)C(NC(=O)c3cnc4cc([N+](=O)[O-])ccc4c3O)c3ccccc3)C(=O)N2[C@H]1C(=O)O (some centres unmarked) [Example 21] | 12.5 µg/mL (≈ 22.1 µM) | 0.39 µg/mL (≈ 0.69 µM) | 12.5 µg/mL (≈ 22.1 µM) | 0.78 µg/mL (≈ 1.38 µM) | 6.25 µg/mL (≈ 11.1 µM) | – | – |
| CCN(CC)c1ccc2ncc(C(=O)NC(C(=O)NC3C(=O)N4C3SC(C)(C)C4C(=O)O)c3ccccc3)c(O)c2n1 (centres unmarked) [Example 37] | 0.78 µg/mL (≈ 1.32 µM) | 0.78 µg/mL (≈ 1.32 µM) | 3.13 µg/mL (≈ 5.28 µM) | 0.78 µg/mL (≈ 1.32 µM) | 1.56 µg/mL (≈ 2.63 µM) | – | – |
| CCOC(=O)Oc1c(C(=O)NC(C(=O)N[C@@H]2C(=O)N3[C@@H]2SC(C)(C)[C@@H]3C(=O)O)c2ccccc2)cnc2ccc(NC(=O)OCc3ccccc3)cc12 (some centres unmarked) [Example 24] | 12.5 µg/mL (≈ 16.9 µM) | 0.39 µg/mL (≈ 0.526 µM) | 12.5 µg/mL (≈ 16.9 µM) | 1.56 µg/mL (≈ 2.1 µM) | 12.5 µg/mL (≈ 16.9 µM) | – | – |
| CC(=O)Nc1ccc2ncc(C(=O)NC(C(=O)N[C@@H]3C(=O)N4[C@@H]3SC(C)(C)[C@@H]4C(=O)O)c3ccccc3)c(O)c2n1 (some centres unmarked) [Example 30] | 3.13 µg/mL (≈ 5.41 µM) | 0.78 µg/mL (≈ 1.35 µM) | 6.25 µg/mL (≈ 10.8 µM) | 3.13 µg/mL (≈ 5.41 µM) | 6.25 µg/mL (≈ 10.8 µM) | – | – |
